Results taken from patent publication US20260242390A1, “TOTAL SYNTHESES OF PORTIMINE A AND ANALOGUES THEREOF AS SMALL MOLECULE MODULATORS OF NMD3” (priority 2023, published 2026).
“Also recorded” adds a separate entry of the source.

Tested on: primary human PBMCs
Assay: Toxicity to primary human PBMCs
Type: cell-based
Conditions: PBMCs 25k per well, 0.23 pM to 1 uM, 12 hr, compared to Jurkat
Description: Structurally related negative control ePA and PB are non-toxic in all cell types in the current concentrate range. PBMCs (25k per well), Jurkat (10k per well). Compound concentration was increased from […] to 1 uM, 4× per gradient, PBMCs using primary B cell media from Wesley (heat deactivated), and Jurkat using normal RPMI media and incubated for 12 hr.
FIG. 3. Initial SAR studies: Assessing activity of PAL functionalized PTMA analogs. […] (A) PA and Ph-PA show less toxic to healthy PBMCs compared to Jurkat cells. […] (B) Immunoblot of caspase-3 in Jurkat and PBMCs with indicated conditions.
• 1) Portimine A and its functional analogs show stereo-selective acute toxicity in cancer cells (FIG. 1). […] (B) Structure of portimine related analogs: phenyl-portimine A (Ph-PA, 36) and epi-portimine A (ePA, 38). Structure of fully functionalized portimine A-based epimeric probe pair: portimine A-diazirine-alkyne (PA-DA, 35-2) and epi-portimine A-diazirine-alkyne (ePA-DA, 35-1). (C) Cell viability analysis of portimine A and analogs. Jurkat cells were treated with increasing concentrations of portimine A and analogs for 24 hours. All presented data as mean of biological replicated experiments (n=3). […] Jurkat cells were treated with portimine A or analogs for 12 hours at 10 nM. […] Structurally related negative control ePA and PB are non-toxic in all cell types in the current concentrate range. PBMCs (25k per well), Jurkat (10k per well). […] Cell cycle analysis in Jurkat cells (FIG. 2). Jurkat cells were treated with 10 nM of indicated compounds for 24 hours, and propodium iodide was used to identify different stages of cells by flow cytometry. […] (A) PA and Ph-PA show less toxic to healthy PBMCs compared to Jurkat cells. […] (B) Immunoblot of caspase-3 in Jurkat and PBMCs with indicated conditions. […] (A) Pharmacokinetic studies of mouse intraperitoneal (i.p.) and oral (p.o.) administration for portimine (n=3). […] Impact of PA [0.3 or 1 mg/kg intraperitoneally] on MC38 tumor growth in WT mice (n=6). (C) Kaplan-Myer survival curve of WT MC38 tumor-bearing mice (n=6) after treatment with PA as described in (D). Mice were euthanized when tumor area exceeded 2000 mm^3. Statistical analysis was performed using ANOVA analysis followed by multiple comparisons test, * p≤0.05. Treatment condition: Jurkat (60 M per condition); PA-DA/ePA-DA concentration: 0.5 uM, PA or ePA: 5 uM; Incubate with probe with or without competitors (PA, ePA) for 30 min; UV irradiated for 20 min. (0.5 uM PA-DA add a no-UV condition), Standard pulldown & biotin-enrichment and western blot analysis (Elute condition: 2× sample buffer+500 uM biotin, boil for 20 mins); Primary antibody NMD3 (ProteinTech, 1:150), Actin (BioRad, 1:10000). […] Chemical proteomic profiling with PA-DA in Jurkat cells (A, B, C, G) and HCC1806 cells (D, E, F, H) show NMD3 is the primary target candidate of portimine A. Volcano plot in panels A and D show protein competition in cells treated with active photoaffinity probe PA-DA (500 nM) and DMSO or the active competitor portimine A (PA, […]), dotted lines indicate threshold of fold change <4, p-value>0.05. […] (I, J) Confirmation of PA-DA engagement of NMD3 in Jurkat and HCC1806 cells. […] Treatment condition: Jurkat (5M per well). Portimine A concentration: 2 nM-1000 nM; In total treat cell for 12 hours. […] Protein degradation of p53, Mcl1, Bid, Bim, Noxa can be rescued by MG132 or Epoxomicin. (B) NMD3 mRNA increased after PA treatment, but not ePA control compound. […]

Row | Compound | toxicity to healthy / primary human PBMCs | toxicity to healthy / primary human PBMCs (listed as Portimine A)
1 | C=CC1=C[C@@H]2[C@@H]3O[C@]4(CC[C@H](O4)C(C)C[C@@H](O)C3=O)C[C@@H](O)C3=NCC[C@@]32CC1 (stereo partly drawn) [ePA, epi-portimine A] | non-toxic; also recorded: non-toxicity | –
2 | C=CC1=C[C@@H]2[C@@H]3O[C@]4(CC[C@H](O4)C(C)C[C@@H](O)C3=O)CC(O)C3=NCC[C@@]32CC1 (some centres unmarked) [PA, portimine A] | substantially less toxic | non-toxic; also recorded: do not induce apoptosis or affect cell viability
3 | CC1C[C@@H](O)C(=O)[C@H]2O[C@]3(CC[C@@H]1O3)CC(O)C1=NCC[C@@]13CCC(c1ccccc1)=C[C@H]23 (some centres unmarked) [Ph-PA, phenyl-portimine A] | substantially less toxic | –
4 | C=CC1=C[C@@H]2[C@@H]3OC4(CC[C@H](O4)C(C)C[C@@H](O)C3=O)CC(=O)C3=NCC[C@@]32CC1 (some centres unmarked) [PB, portimine B] | non-toxic; also recorded: non-toxicity | –
